Experiment: xn = mol fraction of the nth substance listed
Settings: 101 kPa, Liquid

CCCCCCCC[n+]1ccn(C)c1.F[P-](F)(F)(F)(F)F [1-octyl-3-methylimidazolium hexafluorophosphate] + CCCCOC(C)=O
Settings | mass density [kg/m3] | speed of sound [m/s]
293.15 K, x1 = 0.1078 | 957.599 | 1231.1
293.15 K, x1 = 0.2016 | 1010.44 | 1251
293.15 K, x1 = 0.3056 | 1058.02 | 1273.2
293.15 K, x1 = 0.3855 | 1088.56 | 1291.6
293.15 K, x1 = 0.4815 | 1119.98 | 1309.4
293.15 K, x1 = 0.5918 | 1150.6 | 1328.2
293.15 K, x1 = 0.6857 | 1173.18 | 1343.6
293.15 K, x1 = 0.7784 | 1193.01 | 1358.4
293.15 K, x1 = 0.8946 | 1215.11 | 1375.1
293.15 K, x1 = 1 | 1222.81 | 1388.2
298.15 K, x1 = 0.1078 | 953.226 | 1211.6
298.15 K, x1 = 0.2016 | 1006.23 | 1232.7
298.15 K, x1 = 0.3056 | 1053.87 | 1256.9
298.15 K, x1 = 0.3855 | 1084.42 | 1275
298.15 K, x1 = 0.4815 | 1115.96 | 1293.4
298.15 K, x1 = 0.5918 | 1146.75 | 1313.3
298.15 K, x1 = 0.6857 | 1169.44 | 1328.8
298.15 K, x1 = 0.7784 | 1189.32 | 1343.7
298.15 K, x1 = 0.8946 | 1211.35 | 1361.6
298.15 K, x1 = 1 | 1218.9 | 1373.4
303.15 K, x1 = 0.1078 | 948.745 | 1192.2
303.15 K, x1 = 0.2016 | 1001.93 | 1214.5
303.15 K, x1 = 0.3056 | 1049.62 | 1239.7
303.15 K, x1 = 0.3855 | 1080.26 | 1258.8
303.15 K, x1 = 0.4815 | 1111.97 | 1278.6
303.15 K, x1 = 0.5918 | 1142.89 | 1298.6
303.15 K, x1 = 0.6857 | 1165.73 | 1314.7
303.15 K, x1 = 0.7784 | 1185.68 | 1329.6
303.15 K, x1 = 0.8946 | 1207.65 | 1347.1
303.15 K, x1 = 1 | 1214.96 | 1359.3
308.15 K, x1 = 0.1078 | 944.257 | 1172.8
308.15 K, x1 = 0.2016 | 997.643 | 1196.4
308.15 K, x1 = 0.3056 | 1045.4 | 1222.6
308.15 K, x1 = 0.3855 | 1076.13 | 1242.8
308.15 K, x1 = 0.4815 | 1107.98 | 1263.5
308.15 K, x1 = 0.5918 | 1139.12 | 1284
308.15 K, x1 = 0.6857 | 1162.11 | 1300.8
308.15 K, x1 = 0.7784 | 1182.13 | 1315.8
308.15 K, x1 = 0.8946 | 1204.03 | 1333.5
308.15 K, x1 = 1 | 1211.13 | 1345.8
313.15 K, x1 = 0.1078 | 939.644 | 1153.7
313.15 K, x1 = 0.2016 | 993.304 | 1178.5
313.15 K, x1 = 0.3056 | 1041.23 | 1205.7
313.15 K, x1 = 0.3855 | 1072.05 | 1226.9
313.15 K, x1 = 0.4815 | 1104.1 | 1248.4
313.15 K, x1 = 0.5918 | 1135.23 | 1269.7
313.15 K, x1 = 0.6857 | 1158.31 | 1286.8
313.15 K, x1 = 0.7784 | 1178.4 | 1302.1
313.15 K, x1 = 0.8946 | 1200.3 | 1322.1
313.15 K, x1 = 1 | 1207.33 | 1332.7
318.15 K, x1 = 0.1078 | 935.027 | 1134.6
318.15 K, x1 = 0.2016 | 988.947 | 1160.7
318.15 K, x1 = 0.3056 | 1037 | 1189
318.15 K, x1 = 0.3855 | 1067.9 | 1211.2
318.15 K, x1 = 0.4815 | 1100.12 | 1233.6
318.15 K, x1 = 0.5918 | 1131.33 | 1255.5
318.15 K, x1 = 0.6857 | 1154.61 | 1273.1
318.15 K, x1 = 0.7784 | 1174.85 | 1288.7
318.15 K, x1 = 0.8946 | 1196.83 | 1309.5
318.15 K, x1 = 1 | 1203.5 | 1320.1
323.15 K, x1 = 0.1078 | 930.067 | 1115.7
323.15 K, x1 = 0.2016 | 984.404 | 1143
323.15 K, x1 = 0.3056 | 1032.8 | 1172.3
323.15 K, x1 = 0.3855 | 1063.84 | 1195.6
323.15 K, x1 = 0.4815 | 1096.14 | 1218.8
323.15 K, x1 = 0.5918 | 1127.43 | 1241.6
323.15 K, x1 = 0.6857 | 1150.89 | 1259.4
323.15 K, x1 = 0.7784 | 1171.35 | 1275.5
323.15 K, x1 = 0.8946 | 1193.45 | 1296.1
323.15 K, x1 = 1 | 1199.67 | 1307.7

CCCCCCCC[n+]1ccn(C)c1.F[P-](F)(F)(F)(F)F [1-octyl-3-methylimidazolium hexafluorophosphate] + CCOC(C)=O
Settings | mass density [kg/m3] | speed of sound [m/s]
293.15 K, x1 = 0.1056 | 992.13 | 1246.8
293.15 K, x1 = 0.2064 | 1052.79 | 1300.8
293.15 K, x1 = 0.308 | 1097.25 | 1323
293.15 K, x1 = 0.4094 | 1130.77 | 1339
293.15 K, x1 = 0.4991 | 1154.21 | 1349
293.15 K, x1 = 0.5916 | 1174.12 | 1356.8
293.15 K, x1 = 0.694 | 1192.49 | 1363.1
293.15 K, x1 = 0.8121 | 1210.2 | 1368.1
293.15 K, x1 = 0.8895 | 1220.31 | 1374.2
293.15 K, x1 = 1 | 1222.81 | 1388.2
298.15 K, x1 = 0.1056 | 987.426 | 1228.2
298.15 K, x1 = 0.2064 | 1048.5 | 1284.8
298.15 K, x1 = 0.308 | 1093.04 | 1303.4
298.15 K, x1 = 0.4094 | 1126.53 | 1325
298.15 K, x1 = 0.4991 | 1150 | 1335.1
298.15 K, x1 = 0.5916 | 1169.99 | 1342.7
298.15 K, x1 = 0.694 | 1188.53 | 1348.9
298.15 K, x1 = 0.8121 | 1206.48 | 1353.8
298.15 K, x1 = 0.8895 | 1216.63 | 1358.3
298.15 K, x1 = 1 | 1218.9 | 1373.4
303.15 K, x1 = 0.1056 | 982.485 | 1209.8
303.15 K, x1 = 0.2064 | 1044 | 1268.9
303.15 K, x1 = 0.308 | 1088.65 | 1288.2
303.15 K, x1 = 0.4094 | 1122.2 | 1309
303.15 K, x1 = 0.4991 | 1145.83 | 1320.9
303.15 K, x1 = 0.5916 | 1166.01 | 1328.6
303.15 K, x1 = 0.694 | 1184.79 | 1334.7
303.15 K, x1 = 0.8121 | 1202.87 | 1339.7
303.15 K, x1 = 0.8895 | 1212.97 | 1345.2
303.15 K, x1 = 1 | 1214.96 | 1359.3
308.15 K, x1 = 0.1056 | 977.389 | 1191.5
308.15 K, x1 = 0.2064 | 1039.34 | 1253
308.15 K, x1 = 0.308 | 1084.23 | 1273.5
308.15 K, x1 = 0.4094 | 1117.99 | 1298
308.15 K, x1 = 0.4991 | 1141.76 | 1306.3
308.15 K, x1 = 0.5916 | 1162.11 | 1314.2
308.15 K, x1 = 0.694 | 1180.99 | 1320.5
308.15 K, x1 = 0.8121 | 1199.1 | 1325.6
308.15 K, x1 = 0.8895 | 1209.17 | 1331.3
308.15 K, x1 = 1 | 1211.13 | 1345.8
313.15 K, x1 = 0.1056 | 972.526 | 1173.3
313.15 K, x1 = 0.2064 | 1034.74 | 1237.5
313.15 K, x1 = 0.308 | 1079.71 | 1258.3
313.15 K, x1 = 0.4094 | 1113.66 | 1282
313.15 K, x1 = 0.4991 | 1137.66 | 1292.8
313.15 K, x1 = 0.5916 | 1158.28 | 1300.8
313.15 K, x1 = 0.694 | 1177.41 | 1307.2
313.15 K, x1 = 0.8121 | 1195.57 | 1312.3
313.15 K, x1 = 0.8895 | 1205.55 | 1318.4
313.15 K, x1 = 1 | 1207.33 | 1332.7
318.15 K, x1 = 0.1056 | 967.143 | 1155.2
318.15 K, x1 = 0.2064 | 1029.94 | 1222.1
318.15 K, x1 = 0.308 | 1075.23 | 1243.5
318.15 K, x1 = 0.4094 | 1109.39 | 1268
318.15 K, x1 = 0.4991 | 1133.54 | 1279.3
318.15 K, x1 = 0.5916 | 1154.33 | 1287.5
318.15 K, x1 = 0.694 | 1173.67 | 1294
318.15 K, x1 = 0.8121 | 1192.1 | 1299.2
318.15 K, x1 = 0.8895 | 1202.11 | 1305.2
318.15 K, x1 = 1 | 1203.5 | 1320.1
323.15 K, x1 = 0.1056 | 962.069 | 1132.4
323.15 K, x1 = 0.2064 | 1025.26 | 1206.9
323.15 K, x1 = 0.308 | 1070.7 | 1229.1
323.15 K, x1 = 0.4094 | 1105.03 | 1250
323.15 K, x1 = 0.4991 | 1129.38 | 1265.9
323.15 K, x1 = 0.5916 | 1150.44 | 1274.2
323.15 K, x1 = 0.694 | 1170.05 | 1280.9
323.15 K, x1 = 0.8121 | 1188.56 | 1286.3
323.15 K, x1 = 0.8895 | 1198.5 | 1292.2
323.15 K, x1 = 1 | 1199.67 | 1307.7
